pKi: −log10 of the molar value. Values joined by “and” are separate entries in the source; they are usually repeats but may differ in a detail not shown here. Equal values may be shown once.
Key:
[1] = target: Gamma-aminobutyric acid type B receptor subunit 1 (UniProt Q9Z0U4)
[2] = target: Gamma-aminobutyric acid (GABA) B receptor 1 (Rattus norvegicus, UniProt Q6MFX8)
Chain of Gamma-aminobutyric acid (GABA) B receptor 1 (Q6MFX8 whole entry): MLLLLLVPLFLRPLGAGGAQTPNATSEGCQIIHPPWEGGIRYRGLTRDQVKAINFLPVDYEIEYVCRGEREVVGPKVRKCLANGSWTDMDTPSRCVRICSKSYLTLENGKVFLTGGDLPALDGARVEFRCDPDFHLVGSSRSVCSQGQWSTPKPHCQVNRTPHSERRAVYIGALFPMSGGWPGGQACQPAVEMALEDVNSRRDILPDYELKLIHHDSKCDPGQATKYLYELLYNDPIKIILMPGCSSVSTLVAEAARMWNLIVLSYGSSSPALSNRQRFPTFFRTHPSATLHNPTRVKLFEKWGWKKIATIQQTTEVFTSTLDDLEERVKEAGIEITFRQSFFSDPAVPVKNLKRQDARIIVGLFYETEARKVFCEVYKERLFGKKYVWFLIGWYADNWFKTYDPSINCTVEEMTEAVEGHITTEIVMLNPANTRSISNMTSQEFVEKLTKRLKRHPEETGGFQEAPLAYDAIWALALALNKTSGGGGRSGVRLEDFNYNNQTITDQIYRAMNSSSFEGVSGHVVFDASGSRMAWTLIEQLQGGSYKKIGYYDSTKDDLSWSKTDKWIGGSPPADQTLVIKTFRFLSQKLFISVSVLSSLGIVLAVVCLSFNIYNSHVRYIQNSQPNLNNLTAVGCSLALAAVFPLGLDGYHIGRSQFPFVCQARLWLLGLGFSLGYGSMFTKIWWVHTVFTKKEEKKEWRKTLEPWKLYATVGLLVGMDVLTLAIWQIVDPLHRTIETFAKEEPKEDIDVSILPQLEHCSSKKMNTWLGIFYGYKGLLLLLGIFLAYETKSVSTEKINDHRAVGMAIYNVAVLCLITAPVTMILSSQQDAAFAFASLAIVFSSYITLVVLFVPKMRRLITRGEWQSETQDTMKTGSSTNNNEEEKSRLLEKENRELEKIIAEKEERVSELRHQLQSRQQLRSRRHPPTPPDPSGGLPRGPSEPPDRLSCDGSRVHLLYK

Chain of Gamma-aminobutyric acid type B receptor subunit 1 (Q9Z0U4 whole entry): as the sequence (Q6MFX8 whole entry) above

SMILES	pKi [1]	pKi [2]
CN1C(=O)CN=C(c2ccccc2)c2cc(Cl)ccc21	7.72 and 7.74 and 7.66 and 7.70 and 7.59	–
Cc1nnc2ccc(-c3cccc(C(F)(F)F)c3)nn12	–	7.82 and 7.92 and 7.00
CCOC(=O)c1ncn2c1CN(C)C(=O)c1cc(F)ccc1-2 [ethyl 12-fluoro-8-methyl-9-oxo-2,4,8-triazatricyclo[8.4.0.0^{2,6}]tetradeca-1(14),3,5,10,12-pentaene-5-carboxylate]	–	9.00 and 8.70 and 8.72
CC[C@@H](C)N(C)C(=O)c1cc2ccccc2c(-c2ccccc2Cl)n1 [PK 11195]	6.00	–
Cc1nnc2n1-c1ccc(Cl)cc1C(c1ccccc1)=NC2	8.35 and 8.30 and 8.17 and 8.28 and 8.10	–
CN1C(=O)CN=C(c2ccccc2F)c2cc([N+](=O)[O-])ccc21 [Flunitrazepam]	8.06 and 8.00 and 8.21 and 8.30 and 8.12	–
CN1C(=O)CN=C(c2ccc(Cl)cc2)c2cc(Cl)ccc21 [Ro5-4864]	6.00	–
